Laboratory results reported in patent US7655683B2, “Imidazolopyrazole derivatives useful as selective androgen receptor modulators” (Janssen Pharmaceutica NV, priority 2006, dated 2010).

Legend:
[1] = test system: ventral prostate and seminal vesicle of immature castrated male Sprague Dawley rats; test: Ventral Prostate and Seminal Vesicle Weight in vivo Assay (antagonist activity, with testosterone propionate); design: key to Inhibition of prostate (non-weight prostate weight, mg) / Inhibition of seminal vesicle (non-weight seminal vesicle weight, mg): level 1 agonist active if it produced greater than or equal to 30% stimulation of levator ani or ventral prostate at 30 mg/kg; level 2 agonist active if it produced greater than or equal to 5% but less than 30% stimulation of levator ani or ventral prostate at 30 mg/kg; listed herein as “inactive” as they did not meet the specified criteria defined above; conditions: test compound oral plus testosterone propionate 2 mg/kg s.c., five days, criteria at 30 mg/kg; for Inhibition of seminal vesicle (non-weight seminal vesicle weight, mg): seminal vesicle wet weight; for Inhibition of prostate (non-weight prostate weight, mg): ventral prostate wet weight
Method: Immature (approximately 50 g) castrated male Sprague Dawley rats (Charles River) were treated once daily for five days with test compound ([…], in 30% cyclodextrin or 0.5% methylcellulose vehicle) and with testosterone propionate (given subcutaneously by injection at the nape of the neck at 2 mg/kg, in a volume of 0.1 mL in sesame oil). On the sixth day, the rats were euthanized by asphyxiation in carbon dioxide. Ventral prosatates and seminal vesicles were removed and their wet weights determined. Test compound activity was determined as the percent inhibition of testosterone-enhanced tissue weights, with a vehicle-treated control group set to zero percent and a testosterone alone-treated control group set to 100%.

[2] = test system: ventral prostate and levator ani of immature castrated male Sprague Dawley rats; test: Ventral Prostate and Levator ani Weight in vivo Assay (agonist activity); design: key to % Prostate Stimulation / % levator ani Stimulation: level 1 agonist active if it produced greater than or equal to 30% stimulation of levator ani or ventral prostate at 30 mg/kg; level 2 agonist active if it produced greater than or equal to 5% but less than 30% stimulation of levator ani or ventral prostate at 30 mg/kg; listed herein as “inactive” as they did not meet the specified criteria defined above; conditions: once daily for five days, oral, vehicle = 0%, testosterone propionate = 100%, criteria at 30 mg/kg, 30 mg/kg; for % levator ani Stimulation: levator ani wet weight; for % Prostate Stimulation: ventral prostate wet weight
Method: Immature (approximately 50 g) castrated male Sprague Dawley rats (Charles River) were treated once daily for five days with test compound ([…], in 30% cyclodextrin or 0.5% methylcellulose vehicle), or with testosterone propionate (administered subcutaneously by injection at the nape of the neck at 5 mg/kg, in a volume of 0.1 mL in sesame oil), or with vehicle (1 mL of 30% cyclodextrin or 0.5% methylcellulose, given orally). On the sixth day, the rats were euthanized by asphyxiation in carbon dioxide. Ventral prostates and levator ani. muscle were removed and their wet weights determined.
Test compound activity was determined as the percent stimulation of tissue weight, with the vehicle-treated control group set to zero percent and the testosterone alone-treated control group set to 100%.

SMILES	Inhibition of seminal vesicle (non-weight seminal vesicle weight, mg) [1]	Inhibition of prostate (non-weight prostate weight, mg) [1]	% levator ani Stimulation [2]	% Prostate Stimulation [2]
C[C@]12CC(C(F)(F)F)=NN1C(N)=NC2=Nc1ccc(C#N)c(C(F)(F)F)c1.O [Compound 17, 4-(6-Amino-3aR-methyl-2-trifluoromethyl-3,3a-dihydro-imidazo[1,5-b]pyrazol-4-ylideneamino)-2-trifluoromethyl-benzonitrile-Hydrates]	leve 1	inactive	level 1 (level 1 agonist active if it produced greater than or equal to 30% stimulation of levator ani or ventral prostate at 30 mg/kg)	level 2 (level 2 agonist active if it produced greater than or equal to 5% but less than 30% stimulation of levator ani or ventral prostate at 30 mg/kg)
C[C@@]12CC(C(F)(F)F)=NN1C(N)=NC2=Nc1ccc(C#N)c(C(F)(F)F)c1.O [Compound 18, 4-(6-Amino-3aS-methyl-2-trifluoromethyl-3,3a-dihydro-imidazo[1,5-b]pyrazol-4-ylideneamino)-2-trifluoromethyl-benzonitrile-Hydrates]	inactive	inactive	level 2 (level 2 agonist active if it produced greater than or equal to 5% but less than 30% stimulation of levator ani or ventral prostate at 30 mg/kg)	inactive
C[C@@]12CC(C(F)(F)F)=NN1C(N)=NC2=Nc1ccc(C#N)c(C(F)(F)F)c1.O [Compound 19, 4-(6-Amino-3aS-methyl-2-trifluoromethyl-3,3a-dihydro-imidazo[1,5-b]pyrazol-4-ylideneamino)-2-trifluoromethyl-benzonitrile-Hydrates]	level 1 (level 1 antagonist active if it produced greater than or equal to 30% inhibition of ventral prostate or seminal vesicle at 30 mg/kg)	level 1 (level 1 antagonist active if it produced greater than or equal to 30% inhibition of ventral prostate or seminal vesicle at 30 mg/kg)	level 1 (level 1 agonist active if it produced greater than or equal to 30% stimulation of levator ani or ventral prostate at 30 mg/kg)	level 1 (level 1 agonist active if it produced greater than or equal to 30% stimulation of levator ani or ventral prostate at 30 mg/kg)
C[C@]12CC(C(F)(F)F)=NN1C(N)=NC2=Nc1ccc(C#N)c(C(F)(F)F)c1.O [Compound 20, 4-(6-Amino-3aR-methyl-2-trifluoromethyl-3,3a-dihydro-imidazo[1,5-b]pyrazol-4-ylideneamino)-2-trifluoromethyl-benzonitrile-Hydrates]	level 1 (level 1 antagonist active if it produced greater than or equal to 30% inhibition of ventral prostate or seminal vesicle at 30 mg/kg)	level 2 (level 2 antagonist active if it produced greater than or equal to 5% but less than 30% inhibition of ventral prostate or seminal vesicle at 30 mg/kg)	level 2 (level 2 agonist active if it produced greater than or equal to 5% but less than 30% stimulation of levator ani or ventral prostate at 30 mg/kg)	level 2 (level 2 agonist active if it produced greater than or equal to 5% but less than 30% stimulation of levator ani or ventral prostate at 30 mg/kg)
C[C@@]12CC(C(F)(F)F)=NN1C(N)=NC2=Nc1ccc(C#N)c(C(F)(F)F)c1.O [Compound 21, 4-(6-Amino-3aS-methyl-2-trifluoromethyl-3,3a-dihydro-imidazo[1,5-b]pyrazol-4-ylideneamino)-2-trifluoromethyl-benzonitrile-Hydrates]	level 1 (level 1 antagonist active if it produced greater than or equal to 30% inhibition of ventral prostate or seminal vesicle at 30 mg/kg)	level 1 (level 1 antagonist active if it produced greater than or equal to 30% inhibition of ventral prostate or seminal vesicle at 30 mg/kg)	level 1 (level 1 agonist active if it produced greater than or equal to 30% stimulation of levator ani or ventral prostate at 30 mg/kg)	level 1 (level 1 agonist active if it produced greater than or equal to 30% stimulation of levator ani or ventral prostate at 30 mg/kg)
